In patent EP4745134A1 (Jiangsu Yahong Meditech Co., Ltd., priority 2023, dated 2025):
Read-outs that look alike come from different tables or passages of the source.

Tests used:
[1] = tested on: HCT116-WT cells; assay: Inhibitory activity against cell proliferation (CellTiter Glo, 6 days), HCT116-WT; assay type: cell-based; settings: 144 h, HCT116-WT cells, 6 days, CellTiter Glo; read-out: HCT116-WT IC50
Description: (§1) HCT116-WT (ATCC, CCL-247) and HCT116 MTAP KO (Nanjing Cobioer, CBP75002) cells were seeded into white low-transparency sterile 96-well cell culture plates at a density of 250 cells per well respectively, and the culture medium was McCoy's 5A Medium+10% FBS. The plates were placed under the condition of 37°C and 5% CO2 to be cultured overnight. The cells were treated with 4-fold serially diluted compounds of 8 concentration points starting at an initial concentration of 10000 nM, and the last two columns were used as control wells to which only DMSO was added. The drug-treated cells were further cultured for 6 days. On day 7, CellTiter Glo® reagent was added at 50 uL per well, and after reaction under shaking for 10 minutes at room temperature, the chemiluminescence signals were detected for the well plates through the chemiluminescence detection method using a BIOTEK H1 multifunctional microplate-reader. The IC50 values for inhibition of the compounds on cell viability were calculated in X1fit 5.0 software. Table 2. IC50 values for inhibition of the compounds on HCT116 MTAP KO/WT cell growth

[2] = tested on: HCT116 MTAP KO cells; assay: Inhibitory activity against cell proliferation (CellTiter Glo, 6 days), HCT116 MTAP KO; assay type: cell-based; settings: for IC50: HCT116 MTAP KO cells, 6 days, CellTiter Glo, read-out: HCT116 MTAP KO IC50
Description: as §1

[3] = biological target: PRMT5-MTA (Homo sapiens, UniProt O14744); assay: Enzymatic inhibitory activity against PRMT5-MTA (AlphaScreen); assay type: biochemical; settings: read-out: IC50
Procedure, shortened: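 PRMT5/[…] (1 nM) was preincubated for 30 min at room temperature with 1 µM […] and 2.5 µM SAM, then exposed to compound (10-point, 3-fold from 1000 nM) for 15 min at 23 °C. Histone H4 substrate (5 nM) was added and reacted for 45 min at 23 °C. Symmetric dimethyl-R3 H4 was detected by AlphaScreen and IC50 calculated.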

Sequence of PRMT5-MTA (O14744 whole entry): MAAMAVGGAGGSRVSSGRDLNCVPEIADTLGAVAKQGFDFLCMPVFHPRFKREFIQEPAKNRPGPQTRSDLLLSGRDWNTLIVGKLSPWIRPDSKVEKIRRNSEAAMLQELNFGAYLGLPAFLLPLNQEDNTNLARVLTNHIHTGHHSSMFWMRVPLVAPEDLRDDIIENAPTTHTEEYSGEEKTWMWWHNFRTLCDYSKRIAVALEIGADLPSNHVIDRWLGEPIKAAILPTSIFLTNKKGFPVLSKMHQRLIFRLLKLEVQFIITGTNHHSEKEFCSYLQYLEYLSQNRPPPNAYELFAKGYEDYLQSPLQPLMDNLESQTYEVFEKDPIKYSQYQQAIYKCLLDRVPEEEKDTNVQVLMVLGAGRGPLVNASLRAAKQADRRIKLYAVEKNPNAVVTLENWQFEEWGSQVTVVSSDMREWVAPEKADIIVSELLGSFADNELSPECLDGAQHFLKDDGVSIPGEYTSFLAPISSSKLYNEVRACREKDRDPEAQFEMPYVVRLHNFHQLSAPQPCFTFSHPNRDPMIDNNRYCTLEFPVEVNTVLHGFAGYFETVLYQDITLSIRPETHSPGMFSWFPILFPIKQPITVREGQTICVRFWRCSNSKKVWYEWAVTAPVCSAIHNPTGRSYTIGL
Sequence of PRMT5-MTA (Q9BQA1 whole entry partner): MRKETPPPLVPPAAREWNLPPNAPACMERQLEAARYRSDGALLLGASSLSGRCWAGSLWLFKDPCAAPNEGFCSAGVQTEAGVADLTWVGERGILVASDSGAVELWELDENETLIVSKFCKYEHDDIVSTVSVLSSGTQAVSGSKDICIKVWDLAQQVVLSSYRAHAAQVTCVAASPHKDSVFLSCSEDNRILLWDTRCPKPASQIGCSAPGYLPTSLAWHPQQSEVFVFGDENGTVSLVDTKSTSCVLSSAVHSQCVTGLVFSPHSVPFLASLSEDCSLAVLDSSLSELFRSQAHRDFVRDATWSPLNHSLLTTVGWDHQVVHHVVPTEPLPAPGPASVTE

IC50 ([2]; Homo sapiens, HCT-116, 144 h) [nM]	IC50 [3] [nM]	Compound	further results
831	3.4	Cc1cc2nc(N)c3cnn(C)c3c2cc1C(=O)N1CCCN1c1ccc(C(F)(F)F)nc1 [Example 329, (4-amino-1,7-dimethyl-1H-pyrazolo[4,3-c]quinolin-8-yl)(2-(6-(trifluoromethyl)pyridin-3-yl)pyrazolidin-1-yl)methanone]	–
405	6	Cc1cc2nc(N)c3cnn(C)c3c2cc1C(=O)N1CCCN1c1ncccn1 [Example 332, (4-amino-1,7-dimethyl-1H-pyrazolo[4,3-c]quinolin-8-yl)(2-(pyrimidin-2-yl)pyrazolidin-1-yl)methanone]	–
> 10000	4.7	Nc1nc2ccc(C(=O)N3CCCN3c3ccc(C(F)(F)F)cn3)cc2c2c1COC2 [Example 341, (4-amino-1,3-dihydrofuro[3,4-c]quinolin-8-yl)(2-(5-(trifluoromethyl)pyridin-2-yl)pyrazolidin-1-yl)methanone]	–
458	4.7	Cc1cc2nc(N)c3cnn(C)c3c2cc1C(=O)N1CCCN1c1ccc(F)cn1 [Example 344, (4-amino-1,7-dimethyl-1H-pyrazolo[4,3-c]quinolin-8-yl)(2-(5-fluoropyridin-2-yl)pyrazolidin-1-yl)methanone]	–
458	6.1	Cc1cc2nc(N)c3cnn(C)c3c2cc1C(=O)N1CCCN1c1ccccn1 [Example 349, (4-amino-1,7-dimethyl-1H-pyrazolo[4,3-c]quinolin-8-yl)(2-(pyridin-2-yl)pyrazolidin-1-yl)methanone]	–
–	2.5	Cc1cc2nc(N)c3cnn(C)c3c2cc1C(=O)N1C(C)CCN1c1ncccc1F (stereo not drawn) [Example 375, (4-amino-1,7-dimethyl-1H-pyrazolo[4,3-c]quinolin-8-yl)(2-(3-fluoropyridin-2-yl)-5-methylpyrazolidin-1-yl)methanone]	IC50 [2]: 280 nM
–	4.4	Cc1cc2nc(N)c3c(cnn3C)c2cc1C(=O)N1CCCN1c1ncccc1F [Example 501, (4-amino-3,7-dimethyl-3H-pyrazolo[3,4-c]quinolin-8-yl)(2-(3-fluoropyridin-2-yl)pyrazolidin-1-yl)methanone]	–
–	5.2	CCn1ncc2c(N)nc3cc(C)c(C(=O)N4CC(C)CN4c4ncccc4F)cc3c21 (stereo not drawn) [Example 503, (4-amino-1-ethyl-7-methyl-1H-pyrazolo[4,3-c]quinolin-8-yl)(2-(3-fluoropyridin-2-yl)-4-methylpyrazolidin-1-yl)methanone]	–
–	8.6	Cc1cc2nc(N)c3c(cnn3C)c2cc1C(=O)N1CC(C)CN1c1ncccc1F (stereo not drawn) [Example 504, (4-amino-3,7-dimethyl-3H-pyrazolo[3,4-c]quinolin-8-yl)(2-(3-fluoropyridin-2-yl)-4-methylpyrazolidin-1-yl)methanone]	–
–	3	Cn1ncc2c(N)nc3cc(C(F)(F)F)c(C(=O)N4CCCN4c4ccc(C(F)(F)F)cn4)cc3c21 [Example 505, (4-amino-1-methyl-7-trifluoromethyl-1H-pyrazolo[4,3-c]quinolin-8-yl)(2-(5-(trifluoromethyl)pyridin-2-yl)pyrazolidin-1-yl) methanone]	–
–	5.8	Cc1cc2nc(N)c3cnccc3c2cc1C(=O)N1CC(C)CN1c1ncccc1F (stereo not drawn) [Example 506, (5-amino-8-methylbenzo[C] [2,7]naphthyridin-9-yl)(2-(3-fluoropyridin-2-yl)-4-methylpyrazolidin-1-yl)methanone]	–
–	6.1	CC1CN(C(=O)c2cc3c4c(c(N)nc3cn2)COC4)N(c2ncccc2F)C1 (stereo not drawn) [Example 511, (4-amino-1,3-dihydrofuro[3,4-c][1,7]naphthyridin-8-yl)(2-(3-fluoropyridin-2-yl)-4-methylpyrazolidin-1-yl)methanone]	–

Compound	IC50 ([2]; Homo sapiens, HCT-116, 144 h) [nM]	IC50 [3] [nM]	further results
CC1CN(C(=O)c2cc3c(cc2F)nc(N)c2cnn(C)c23)N(c2ncccc2F)C1 (single isomer, unassigned) [Example 467]	94	–	IC50 [1]: 3040 nM; Selectivity HCT 116-WT/ HCT116 MTAP KO ([2]; ratio of IC50 HCT116-WT / HCT116 MTAP KO): 32.33
